Test results reported in PMC11388068, “Amide naphthotube as a novel supramolecular sequestration agent for tetracaine and decamethonium” (Theranostics, 2024).
Where “and” joins values, the source holds several entries; their conditions need not be identical. Equal values may be shown once. Read-outs that look alike come from different tables or passages of the source.

What was measured:
[1] = Lethal C10 poisoning mouse model (Dixon's up-and-down, probit); assay type: in vivo; conditions: Balb/c, mouse, in vivo, iv; C10 i.v., mice, probit analysis
Protocol: (§1) Lethal C10 poisoning mouse model: the lethal dose of i.v. administered C10 was calculated using Dixon's up-and-down method similar to TC. The initial dose of C10 was 0.9 mg/kg. Subsequent doses for each mouse were adjusted by ±0.1 mg/kg based on the outcome of the preceding animal.

mice = assay: as above; assay type: in vivo; conditions: C10 i.v., probit analysis
Protocol: as §1

[2] = Plasma pharmacokinetics of C10, saline- and 1b-treated groups; assay type: in vivo, Male Kunming mice; conditions: for AUC(0-inf) / AUC(0-t) / Cmax / MRT last / MRT inf / half-life / Vd: plasma; for MRT last: read-out: MRT0-t; for MRT inf: read-out: MRT0-∞; for half-life: read-out: T1/2z (converted); for Vd: read-out: Vz
Protocol: Male Kunming mice (30 ± 2 g) were used in the pharmacokinetic study. Drugs were injected through the tail vein of mice. Blood, liver, and kidney tissues were collected at certain intervals after administration with 6 mice at each time point. Blood samples were placed in heparin sodium tubes and centrifuged at 6000 rpm for 20 minutes at 4^ oC to obtain plasma samples. Plasma, liver and kidney tissues were stored in a freezer at -80 °C and frozen until analysis was performed. The drug concentrations were determined by Liquid chromatography-mass spectrometry (Waters ACQUITY UPLC/Xevo TQ-S). The Masslynx 4.1 software was used to obtain the peak area of the tested compounds and internal standards in each plasma sample and calculate the standard curve formula. […] The detailed pharmacokinetics experiment procedure including materials and reagents, sample preparation, establishment and validation of analytical strategy, and LC-MS conditions are described in the Supporting Information.
1.3. A dministration and collection of plasma samples
Male Kunming mice (30±2g) were randomly divided into 5 groups, namely 1b group (dose 80mg/kg, concentration 20mg/ml), C10 group (dose 0.45mg/kg, concentration 0.125mg/ml, C10 injection for 30s followed by the same volume of normal saline), 1b combined with C10 group (C10 dose 0.45 mg/kg, C10 concentration 0.125mg/ml, C10 injection for 30s followed by 1b 6 mg/kg, 1b concentration 1.5 mg/ml). Drugs were injected through the tail vein of mice. In group 1b , eyeball blood and liver and […]
after administration, with 6 mice in each time point. In the other four groups, blood and liver and kidney tissues were collected from eyeballs at 3min, 5min, 10min, 15min, 30min, 45min and 1h after administration. Six mice were selected at each time point. Blood samples were placed in heparin sodium tubes and centrifuged at 6000rpm for 20 minutes at 4℃ to obtain plasma samples. They were stored in a refrigerator at - 80 ° C and frozen until analysis. Plasma, liver and kidney tissues were stored in a freezer at - 80 ℃ and then frozen until analysis was performed.
1.4. Preparation of Calibration Standards and Quality Control (QC) Samples 1b, C10, and IS were dissolved separately in methanol to get a stock solution concentration of 1.0 mg/mL. The stock solution of the drug to be tested was then diluted with methanol to prepare the working solution. Calibration standards and QC samples were prepared by diluting the working solution with methanol. The final concentrations of C10 were 25, 250 and 1000 ng/mL, 1b final concentration of 150, 1500 and 6000 ng/mL.The final concentration of IS is 10 ng/mL.
1.5.Mouse plasma sample preparation
The plasma to be tested was thawed at room temperature, and 100 μL of mouse plasma samples were collected in 1.5 mL EP tubes. 10 μL of IS solution (10 ng/mL) and 10 μL of methanol were mixed followed by the addition of 400 μL […] (1:1 v / v), and then the tubes were vortex mixed for 3.0 min.
After centrifugation at 13,000 rpm for 20 min at 4 °C, the supernatant was transferred to a nitrogen blower, and the solvent was dried by maintaining a steady flow of nitrogen. After drying the solvent, reconstituted with 100 μL 20% aqueous methanol

C10-induced paralysis = assay: Mobility recovery assessment in a mouse model (Rotarod); assay type: in vivo, Female Balb/c mice; conditions: mice given C10 0.53 mg/kg, no 1b
Protocol: Mobility recovery assessment in a mouse model: the trained mice for 4 days were i.v. administered with either 4 mg/kg or 6 mg/kg of 1b, or saline, 30 seconds after administering 0.53 mg/kg C10. The mice were then placed on the rotor, and the time taken to move on the rotor for 30 seconds successfully was recorded.

Balb/c mice [3] = assay: C10-induced paralysis dose in a mouse model (Rotarod); assay type: in vivo, Female Balb/c mice; conditions: C10 i.v., probit analysis
Protocol: Determination of C10-induced paralysis dose in a mouse model: The movement behavior was conducted with the Rotarod rotor (ZB-200). Female Balb/c mice (8-9 weeks old) weighing 18-22 g were placed on the Rotarod rotor and trained three times for 30 minutes, three times a day for three consecutive days. On day 4, Dixon's up-and-down method was employed to explore the effective dose: The initial dose of C10 to the first mouse was 0.6 mg/kg, and the standard dose ratio of C10 given to the adjacent mouse was 0.8. […] Conversely, in the case of a negative response, the following mouse received an increased dose. Tests were conducted sequentially, with changes in mobility response transitioning between positive and negative until at least 7 crossover points were reached. Probit analysis was employed to determine the ED50 (50% effective dose) and ED95 (95% effective dose) of C10, along with their corresponding CI (confidence intervals). Sequence diagrams and dose-response curves were generated using GraphPad Prism 9 software.

[4] = Lethal TC poisoning mouse model (Dixon's up-and-down, probit); assay type: in vivo, female Balb/c mice; conditions: female, Balb/c, mouse, in vivo, iv, TC i.v., mice, probit analysis
Protocol: (§2) Lethal TC poisoning mouse model: the lethal dose of i.v. administered TC was calculated in mice (8-10 week old female Balb/c mice, weighing 20-25 g) using Dixon's up-and-down method. The initial dose of TC given to the first mouse was 9.0 mg/kg, and the standard dose ratio of TC given to the adjacent mouse was 0.9. If the animal survives, the subsequent animal receives a higher dose. If the animal dies, the following animal receives a lower dose. This process was repeated until at least seven crossover points were achieved. Probit analysis was employed to determine the LD50 (50% lethal dose) and LD95 (95% lethal dose) of TC, along with their corresponding CI (confidence intervals). Sequence diagrams and dose-response curves were generated using GraphPad Prism 9 software.

Balb/c mice [5] = assay: as above; assay type: in vivo, female Balb/c mice; conditions: TC i.v., probit analysis
Protocol: as §2

AC16 cells [6] = assay: Plasma membrane potential, DiBAC4(3) flow cytometry; assay type: cell-based, Human; conditions: AC16 cells exposed to TC for 10 minutes
Protocol: Determination of the plasma membrane potential: AC16 cells were seeded into 12-well plates and cultured until reaching 80-90% confluence. Following removal of the culture medium, cells were exposed to HBSS (Hank's Balanced Salt Solution) containing […] TC for 10 minutes at 37 °C. Subsequently, cells were collected and incubated with 200 nM Bis-(1,3-Dibutylbarbituric Acid)-Trimethine Oxanol (DiBAC4(3), Solarbio) for 20 minutes at 37 °C. The fluorescence intensity of cells was then assessed using flow cytometry. To determine the impact of 1b (ammonium salt) on plasma membrane potential, 25×10^4 AC16 cells were co-incubated with 400 µM TC and varying concentrations of 1b (0, 400, 800, and 2000 µM) or exclusively with 1b (2000 µM) in HBSS for 10 minutes at 37 °C. Plasma membrane potential was subsequently evaluated using the aforementioned methodology.

Human myocytes AC16 cell = assay: CCK-8 cytotoxicity assay in AC16 cells; assay type: cell-based; conditions: 24 h, 24 h incubation, mixtures in a 1:1 ratio
Protocol: Cells experiments: AC16 cells were cultured in DMEM/F12 with 10% FBS, 1% penicillin, and 1% streptomycin at 37 °C with 5% CO2, and passaged every 2 days. They were seeded into 96-well plates at a density of 5-8×10^3 cells per well and cultured overnight. Then, different concentrations of TC, 1a, 1b, TC@1a and TC@1b mixture solution at various concentrations (25, 50, […], […], 200, 400, 800, and 1600 μM) were added to replace the culture medium for 24 h at 37 °C. After incubation, Cell Counting Kit-8 solution (10 μL per well) was added, and cells were incubated for 4 h at 37 °C. The optical density values at 450 nm were measured using a microplate reader to assess cell viability as a percentage of control cells. Finally, IC50 values were calculated using GraphPad Prism 8.0.2 software.
The assay and cell viability were calculated as in the cell experiment above.

AC16 cells [7] = assay: Intracellular sodium levels; assay type: cell-based, Human; conditions: TC 400 µM, 10 minutes
Protocol: Determination of intracellular sodium levels: 3×10^5 AC16 cells were seeded in 6-well plates with 2 mL of medium. After 12 hours, the cell medium was replaced with 400 µM TC and varying concentrations of compound 1b (ammonium salt, 0, 400, 800, and 2000 µM) or 2000 µM 1b in HBSS for 10 minutes at 37 °C. Control cells were treated with 2 mL HBSS for 10 minutes at 37 °C. After washing with PBS, cells were lysed in 300 µL of 1% Triton X-100 in saline with a 1% proteinase inhibitor cocktail from Meilunbio. The lysates were centrifuged at 12,000 ×g for 15 minutes, and the supernatant was collected for sodium level determination (7600 Modular-Hitachi-Chemistry Analyzer) and total protein content BCA assays (Epizyme Biotech). The sodium-to-protein ratio was calculated, presenting results as relative intracellular sodium content compared to the control group.

[8] = male, Kunming, mouse, iv, 0.45 mg/kg, C10 in plasma, Saline-treated Group
[9] = male, Kunming, mouse, iv, 0.45 mg/kg, C10 in plasma, 1b-treated Group

Structure (SMILES): C[N+](C)(C)CCCCCCCCCC[N+](C)(C)C [C10, Decamethonium]
- LD50 [1]: 0.69 mg/kg
- LD95 (mice): 0.86 mg/kg
- CL ([2]; C10 in plasma, 1b-treated Group): 1.12 ± 0.22 mL/h/g
- CL ([2]; C10 in plasma, Saline-treated Group): 1.54 ± 0.16 mL/h/g
- Tmax [2, 8]: 3 min
- AUC(0-inf) ([2]; male, Kunming, mouse, iv, 0.45 mg/kg, C10, 1b-treated Group, read-out: area under the plasma concentration-time curve (AUC0-∞)): 414 ± 80.9 ng·h/mL
- AUC(0-inf) ([2]; male, Kunming, mouse, iv, 0.45 mg/kg, C10, saline-treated Group, read-out: area under the plasma concentration-time curve (AUC0-∞)): 294 ± 28 ng·h/mL
- AUC(0-t) [2, 9]: 406 ± 77.2 ng·h/mL
- Cmax [2, 9]: 1630 ± 345 ng/mL
- AUC(0-inf) ([2]; male, Kunming, mouse, iv, 0.45 mg/kg, C10 in plasma, 1b-treated Group, read-out: AUC0-∞): 414 ± 80.9 ng·h/mL
- MRT last [2, 9]: 9 ± 1.2 min
- MRT inf [2, 9]: 10.2 ± 1.8 min
- half-life [2, 9]: 11.4 ± 1.2 min
- Vd [2, 9]: 0.3 ± 0.06 L/kg
- AUC(0-t) [2, 8]: 284 ± 26.4 ng·h/mL
- Cmax [2, 8]: 1310 ± 179 ng/mL
- AUC(0-inf) ([2]; male, Kunming, mouse, iv, 0.45 mg/kg, C10 in plasma, Saline-treated Group, read-out: AUC0-∞): 294 ± 28 ng·h/mL
- MRT last [2, 8]: 6.6 ± 1.2 min
- MRT inf [2, 8]: 9.6 ± 2.4 min
- half-life [2, 8]: 21.6 ± 9.6 min
- Vd [2, 8]: 0.8 ± 0.33 L/kg
- average recovery time (C10-induced paralysis): approximately 402.8 seconds
- ED95 for inducing muscle paralysis (Balb/c mice [3]): 0.53 mg/kg
- ED50 (Balb/c mice [3]; Mus musculus, iv, read-out: ED50 for inducing muscle paralysis): 0.37 mg/kg

Structure (SMILES): CCCCNc1ccc(C(=O)OCCN(C)C)cc1 [TC, Tetracaine]
- LD50 [4]: 6.92 mg/kg
- LD50 (Balb/c mice [5]): 6.9 mg/kg
- LD95 (Balb/c mice [5]): 8.749 mg/kg and 8.7 mg/kg
- mean fluorescence intensity (plasma membrane potential) (AC16 cells [6]): significant rise in mean fluorescence intensity
- IC50 (Human myocytes AC16 cell): 384 µM
- intracellular sodium loss (AC16 cells [7]): approximately 20%
